Test results: patent US20190224222A1, “METHOD OF INHIBITING QUORUM SENSING USING D-GALACTOSE” (Seoul National University R&DB Foundation, priority 2014, published 2019)

Columns and labels:
[1] = tested on: F. nucleatum (Fn) biofilm; assay: Fn biofilm formation induced by Fn AI-2, crystal violet staining; format: cell-based, F. nucleatum (ATCC 25586); details: Fn + Fn AI-2 10% (v/v), 48-72 h, Fn/AI-2 control 1.5, Fn 0.46
Method: To test biofilm formation by Fn, a Fn culture broth (2 ml; a negative control group, the number of bacteria: 2×10^7/ml), a mixture of Fn culture broth (2 ml) and F. nucleatum AI-2 (purified from F. nucleatum secretary material of F. nucleatum culture broth using a C18 Sep-Pak reverse-phase column (Waters Co., Milford, Mass.); hereinafter, referred to as ‘Fn AI-2’; 10% (v/v) with respect to the total volume of the mixture with Fn culture broth), or a mixture of Fn culture broth (2 ml) and Fn AI-2 (10% (v/v) with respect to the total volume of the mixture with Fn culture broth) and each of QSI candidates was added to a 24-well plate with a glass slip (round, 12 mm radius), and cultured under anaerobic conditions for 48-72 hours. As the QSI candidates, sugars (D-rib, D-gal, D-Glu, D-Man, or D-ara) were used in an amount of 2 mM, and the furanone compound [(5Z)-4-bromo-5-(bromomethylene)-2(5H)-furanone] was used in an amount of 2 μM.
(§1) Biofilms formed on the cover slips were stained with 10% crystal violet [Tris(4-(dimethylamino)phenyl)methylium chloride] for 10 minutes, washed three times with PBS, and destained with 1 ml of acetone-alcohol (20:80, vol/vol). The optical density at 590 nm of the destaining solution containing crystal violet was measured using a microplate reader (a Wallac Victor3 microtiter, PerkinElmer Life Sciences, Waltham, Mass.). The smaller optical density (OD590) measured at 590 nm represents more inhibition of biofilm formation, that is, higher quorum sensing inhibitory effect of the used QSI candidate.

[2] = tested on: T. forsythia (Tf) biofilm; assay: Tf biofilm formation induced by Fn secretory material, transwell, crystal violet; format: cell-based; details: Fn upper / Tf lower chamber, Fur 2 μM, 48-72 h, Fn/Tf control 0.55, Tf alone 0.17
Method: (§2) In order to examine efficacies of quorum sensing inhibitor (QSI) candidates on biofilm formation of periodontopathogenic bacteria which is induced by a secretory material of F. nucleatum (Fn), a test was performed using a transwell system. AI-2 naturally secreted by Fn is contained in the secretory material of Fn. Therefore, in the test using the transwell system, Fn AI-2 was not directly added to bacteria, but Fn was put in an upper chamber and Pg or Tf was put in a lower chamber. Biofilms cultured and formed in the presence or absence of QSI candidates were stained with crystal violet, followed by analysis. These conditions are to evaluate whether Pg or Tf biofilm formation is influenced by not a purified AI-2 but an AI-2-containing secretory material naturally secreted by Fn, and whether QSI candidates such as D-gal is able to inhibit the biofilm formation if the biofilm is then formed.
(§3) More specifically, the transwell system (24-well) has an upper chamber and a lower chamber which are separated from each other by a membrane of 0.4 μm. 500 μl of F. nucelatum (Fn) culture broth (the number of bacteria: 2×10^7 CFU/ml) was cultured in the upper chamber. A glass slip was placed in the lower chamber, and then the same number of P. gingivalis(Pg) or T. forsythia(Tf) was inoculated in 1 ml of medium and cultured for 48-72 hours. The same QSI candidates were added to the upper and lower chambers. As the QSI candidates, 2 mM of sugar (D-rib or D-gal) was used and 2 μM of the furanone compound [(5Z)-4-bromo-5-(bromomethylene)-2(5H)-furanone] was used. In order to examine whether biofilm formation of the bacteria in the lower chamber is influenced by Fn secretory material and QSI candidates, the biofilms formed on the glass slip were stained with crystal violet, and then quantified (see Examples 3 to 5).

S. mutans (Sm) biofilm = assay: S. mutans biofilm formation, crystal violet staining; format: cell-based, Streptococcus mutans (ATCC 25175)
Method: (§4) 2 mL (2×10^7/ml) of the culture broth of a representative cariogenic bacterium S. mutans (Sm) and 2 mL (2×10^7/ml) of the culture broth of one of normal oral flora, S. oxalis (SO) were added to a saliva-coated glass slip (round, 12 mm radius), respectively and cultured with 0 mM or 2 mM of D-galactose to form biofilms. The formed biofilms were stained with crystal violet in the same manner as in Examples 3-6 to test biofilm formation according to the presence of D-galactose. Further, the biofilms were stained with fluorescent materials using the live/dead-BacLight viability kit (Invitrogen, Grand Island, N.Y., USA), followed by analysis. For comparison, 2 μM of the furanone compound was used instead of D-galactose to perform the same test.

[3] = tested on: P. gingivalis (Pg) biofilm; assay: Pg biofilm formation induced by Fn secretory material, transwell, crystal violet; format: cell-based; details: Fn upper / Pg lower chamber, Fur 2 μM, 48-72 h, Fn/Pg control 0.57, Pg alone 0.30
Method: as §2, §3

[4] = tested on: T. forsythia (Tf) biofilm; assay: Tf biofilm formation induced by Fn AI-2, crystal violet staining; format: cell-based, T. forsythia (ATCC 43037); details: Tf + Fn AI-2 10% (v/v), Fur 2 μM, 48-72 h; Tf/AI-2 control 0.48, Tf 0.32
Method: To test biofilm formation by Tf, a test was performed in the same manner as in Example 3. That is, a Tf culture broth (2 ml; a negative control group, the number of bacteria: 2×10^8/ml), a mixture of Tf culture broth (2 ml) and Fn AI-2 (10% (v/v) with respect to the total volume of the mixture with Tf culture broth), or a mixture of Tf culture broth (2 ml) and Fn AI-2 (10% (v/v) with respect to the total volume of the mixture with Tf culture broth) and D-gal (2 mM) was added to a 24-well plate with a glass slip (round, 12 mm radius), and cultured under anaerobic conditions for 48-72 hours. For comparison, 2 mM of D-rib or 2 μM of the furanone compound [(5Z)-4-bromo-5-(bromomethylene)-2(5H)-furanone] was used instead of D-gal to perform the same test.
as §1

[5] = tested on: P. gingivalis (Pg) biofilm; assay: Pg biofilm formation induced by Fn AI-2, crystal violet staining; format: cell-based, P. gingivalis (ATCC 33277); details: Pg + Fn AI-2 10% (v/v), Fur 2 μM, 48-72 h; Pg/AI-2 control 2.00, Pg 0.66
Method: To test biofilm formation by Pg, a test was performed in the same manner as in Example 3. That is, a Pg culture broth (2 ml; negative control group, the number of bacteria: 4×10^8/ml), a mixture of Pg culture broth (2 ml) and Fn AI-2 (10% (v/v) with respect to the total volume of the mixture with Pg culture broth), or a mixture of Pg culture broth (2 ml) and Fn AI-2 (10% (v/v) with respect to the total volume of the mixture with Fn culture broth) and D-gal (2 mM) was added to a 24-well plate with a glass slip (round, 12 mm radius), and cultured under anaerobic conditions for 48˜72 hours. For comparison, 2 μM of the furanone compound [(5Z)-4-bromo-5-(bromomethylene)-2(5H)-furanone] was used instead of D-gal (2 mM) to perform the same test.
as §1

S. oxalis (So) biofilm = assay: S. oxalis biofilm formation, crystal violet staining; format: cell-based, Streptococcus oxalis (ATCC 9811); details: So on saliva-coated glass slip, Fur 2 uM; So control 0.59
Method: as §4, with “The formed biofilms were stained with crystal violet in the same manner as in Examples 3-6 to test biofilm formation according to the presence of D-galactose.” left out

[6] = sugar 2 mM, smaller OD = more inhibition of biofilm

Q: Which OD590 nm [1, 6] does the source give for `O=C[C@@H](O)[C@H](O)[C@H](O)CO` [D-ara, D-arabinose] here?
A: The OD590 nm was 1.37.

Q: How did the OD590 nm [1, 6] turn out when `O=C[C@H](O)[C@@H](O)[C@H](O)[C@H](O)CO` [D-glu, D-glucose] was run?
A: The OD590 nm was 1.15.

Q: With `O=C[C@@H](O)[C@@H](O)[C@H](O)[C@H](O)CO` [D-man, D-mannose] as the molecule, how does the OD590 nm [1, 6] read?
A: Its OD590 nm is 1.16.

Q: What does the source list for `O=C1C=C(Br)/C(=C/Br)O1` [Fur, (5Z)-4-bromo-5-(bromomethylene)-2(5H)-furanone, reference compound]?
A: OD590 [2]: 0.39; OD590 nm (S. mutans (Sm) biofilm; Sm on saliva-coated glass slip, Fur 2 μM, Sm control 0.48): 0.51; inhibitory effect on Sm biofilm formation, in words (S. mutans (Sm) biofilm; crystal violet, D-gal 2 mM, furanone compound 2 μM): hardly exhibited the inhibitory effect; OD590 nm [3]: 0.30; OD590 nm [4]: 0.35; OD590 nm [5]: 0.98; OD590 nm ([1]; Fur 2 μM): 0.49; OD590 (S. oxalis (So) biofilm): 0.64
